Columns and labels:
[1] = biological target: T1, Inositol-tetrakisphosphate 1-kinase (Homo sapiens) (UniProt Q13572); test: Inhibition of human ITPK1 in HL-60 cells lysate assessed as reduction of labeling of acyl-phosphate ATP probe at 100 nM; format: cell-free
T1 sequence (whole entry): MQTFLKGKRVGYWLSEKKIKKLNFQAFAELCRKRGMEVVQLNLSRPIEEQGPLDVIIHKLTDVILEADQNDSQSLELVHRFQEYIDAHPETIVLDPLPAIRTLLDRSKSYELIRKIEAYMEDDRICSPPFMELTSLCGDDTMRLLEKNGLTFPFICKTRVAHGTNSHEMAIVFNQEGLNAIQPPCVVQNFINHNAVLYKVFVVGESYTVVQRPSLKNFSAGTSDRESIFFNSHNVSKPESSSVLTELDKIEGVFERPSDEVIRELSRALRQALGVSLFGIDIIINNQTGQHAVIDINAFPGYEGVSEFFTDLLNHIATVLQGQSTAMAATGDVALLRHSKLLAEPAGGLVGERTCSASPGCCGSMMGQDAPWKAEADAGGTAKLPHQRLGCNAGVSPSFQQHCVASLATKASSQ

[2] = biological target: Phosphatidylinositol 4-kinase beta (Homo sapiens) (UniProt Q9UBF8); test: Inhibition of human PI4KB in HL-60 cells lysate assessed as reduction of labeling of acyl-phosphate ATP probe at 100 nM; format: cell-free
[3] = biological target: Phosphatidylinositol 4-phosphate 3-kinase C2 domain-containing subunit beta (Homo sapiens) (UniProt O00750); test: Inhibition of human PIK3C2B in HL-60 cells lysate assessed as reduction of labeling of acyl-phosphate ATP probe at 100 nM; format: cell-free
[4] = biological target: Serine/threonine-protein kinase Nek6 (Homo sapiens) (UniProt Q9HC98); test: Inhibition of human NEK6 in HL-60 cells lysate assessed as reduction of labeling of acyl-phosphate ATP probe at 100 nM; format: cell-free
[5] = biological target: Serine/threonine-protein kinase tousled-like 2 (Homo sapiens) (UniProt Q86UE8); test: Inhibition of human TLK2 in HL-60 cells lysate assessed as reduction of labeling of acyl-phosphate ATP probe at 100 nM; format: cell-free
[6] = biological target: T2, Dual specificity mitogen-activated protein kinase kinase 3 (Homo sapiens) (UniProt P46734); test: Inhibition of human MAP2K3 in HL-60 cells lysate assessed as reduction of labeling of acyl-phosphate ATP probe at 100 nM; format: cell-free
T2 sequence (whole entry): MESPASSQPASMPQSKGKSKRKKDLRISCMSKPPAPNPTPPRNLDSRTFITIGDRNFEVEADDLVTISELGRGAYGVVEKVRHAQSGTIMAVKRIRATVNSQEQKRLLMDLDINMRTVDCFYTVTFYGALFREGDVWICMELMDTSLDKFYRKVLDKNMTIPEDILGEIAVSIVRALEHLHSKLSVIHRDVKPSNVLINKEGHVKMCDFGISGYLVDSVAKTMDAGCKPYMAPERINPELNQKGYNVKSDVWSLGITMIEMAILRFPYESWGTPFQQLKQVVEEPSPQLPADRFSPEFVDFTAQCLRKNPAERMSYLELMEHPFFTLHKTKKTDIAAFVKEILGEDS

[7] = system: HL-60; test: Inhibition of human TAO1/TAO3 in HL-60 cells lysate assessed as reduction of labeling of acyl-phosphate ATP probe at 100 nM
[8] = biological target: Tyrosine-protein kinase CSK (Homo sapiens) (UniProt P41240); test: Inhibition of human CSK in HL-60 cells lysate assessed as reduction of labeling of acyl-phosphate ATP probe at 100 nM; format: cell-free
[9] = biological target: Tyrosine-protein kinase JAK1 (Homo sapiens) (UniProt P23458); test: Inhibition of human JAK1 domain1 in HL-60 cells lysate assessed as reduction of labeling of acyl-phosphate ATP probe at 100 nM; format: cell-free
[10] = biological target: T3, Serine/threonine-protein kinase A-Raf (Homo sapiens) (UniProt P10398); test: Inhibition of human ARAF in HL-60 cells lysate assessed as reduction of labeling of acyl-phosphate ATP probe at 100 nM; format: cell-free
T3 sequence (whole entry): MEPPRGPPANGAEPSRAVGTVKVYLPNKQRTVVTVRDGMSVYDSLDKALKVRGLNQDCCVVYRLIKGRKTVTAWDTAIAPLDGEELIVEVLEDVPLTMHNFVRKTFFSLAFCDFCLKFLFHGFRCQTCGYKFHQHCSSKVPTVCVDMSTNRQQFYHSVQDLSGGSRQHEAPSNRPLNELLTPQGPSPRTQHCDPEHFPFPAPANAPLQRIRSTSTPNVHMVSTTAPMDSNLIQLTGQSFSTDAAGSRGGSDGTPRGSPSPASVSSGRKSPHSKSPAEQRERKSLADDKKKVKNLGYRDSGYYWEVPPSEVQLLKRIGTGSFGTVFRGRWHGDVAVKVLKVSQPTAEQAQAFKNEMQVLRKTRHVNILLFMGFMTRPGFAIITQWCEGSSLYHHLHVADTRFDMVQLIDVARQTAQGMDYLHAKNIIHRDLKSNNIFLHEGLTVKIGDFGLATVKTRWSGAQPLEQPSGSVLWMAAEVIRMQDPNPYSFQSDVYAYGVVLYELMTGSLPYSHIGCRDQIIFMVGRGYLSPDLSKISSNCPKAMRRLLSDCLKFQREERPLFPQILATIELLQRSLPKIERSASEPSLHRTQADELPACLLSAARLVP

[11] = biological target: T4, Scaffold protein ILK (Homo sapiens) (UniProt Q13418); test: Inhibition of human ILK in HL-60 cells lysate assessed as reduction of labeling of acyl-phosphate ATP probe at 100 nM; format: cell-free
T4 sequence (whole entry): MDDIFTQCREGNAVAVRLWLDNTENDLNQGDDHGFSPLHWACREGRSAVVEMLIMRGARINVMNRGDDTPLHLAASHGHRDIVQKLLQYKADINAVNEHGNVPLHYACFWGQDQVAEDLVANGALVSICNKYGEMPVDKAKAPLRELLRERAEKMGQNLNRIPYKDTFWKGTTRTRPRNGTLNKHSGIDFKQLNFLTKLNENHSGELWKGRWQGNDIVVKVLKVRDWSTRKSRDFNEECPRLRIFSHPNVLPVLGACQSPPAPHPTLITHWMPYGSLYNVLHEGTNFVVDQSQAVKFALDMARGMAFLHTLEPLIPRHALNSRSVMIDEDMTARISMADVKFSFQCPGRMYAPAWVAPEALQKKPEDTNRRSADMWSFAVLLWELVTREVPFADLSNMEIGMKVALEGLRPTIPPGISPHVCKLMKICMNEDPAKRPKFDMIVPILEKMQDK

[12] = biological target: Dual specificity tyrosine-phosphorylation-regulated kinase 1B (Homo sapiens) (UniProt Q9Y463); test: Inhibition of human DYRK1B in HL-60 cells lysate assessed as reduction of labeling of acyl-phosphate ATP probe at 100 nM; format: cell-free
Sequence of Dual specificity tyrosine-phosphorylation-regulated kinase 1B (Homo sapiens) (Q9Y463 whole entry, looked up): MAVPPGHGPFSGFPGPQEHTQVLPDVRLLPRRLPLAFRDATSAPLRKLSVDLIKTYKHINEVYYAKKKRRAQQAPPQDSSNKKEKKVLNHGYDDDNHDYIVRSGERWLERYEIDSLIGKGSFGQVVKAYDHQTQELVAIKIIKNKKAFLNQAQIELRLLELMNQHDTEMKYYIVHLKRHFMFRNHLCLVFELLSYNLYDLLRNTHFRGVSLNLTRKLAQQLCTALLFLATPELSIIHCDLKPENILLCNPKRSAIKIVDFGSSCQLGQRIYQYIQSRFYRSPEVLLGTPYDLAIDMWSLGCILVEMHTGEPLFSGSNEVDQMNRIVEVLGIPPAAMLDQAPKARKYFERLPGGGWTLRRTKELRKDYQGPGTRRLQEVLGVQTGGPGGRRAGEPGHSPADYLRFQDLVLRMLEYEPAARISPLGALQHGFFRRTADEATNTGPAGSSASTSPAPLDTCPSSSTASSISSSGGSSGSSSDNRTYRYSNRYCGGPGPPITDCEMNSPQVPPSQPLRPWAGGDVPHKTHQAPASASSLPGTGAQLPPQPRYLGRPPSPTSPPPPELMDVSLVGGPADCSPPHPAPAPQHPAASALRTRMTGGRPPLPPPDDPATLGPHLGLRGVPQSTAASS

Sequence of Phosphatidylinositol 4-phosphate 3-kinase C2 domain-containing subunit beta (Homo sapiens) (O00750 whole entry, the tested form may be a part): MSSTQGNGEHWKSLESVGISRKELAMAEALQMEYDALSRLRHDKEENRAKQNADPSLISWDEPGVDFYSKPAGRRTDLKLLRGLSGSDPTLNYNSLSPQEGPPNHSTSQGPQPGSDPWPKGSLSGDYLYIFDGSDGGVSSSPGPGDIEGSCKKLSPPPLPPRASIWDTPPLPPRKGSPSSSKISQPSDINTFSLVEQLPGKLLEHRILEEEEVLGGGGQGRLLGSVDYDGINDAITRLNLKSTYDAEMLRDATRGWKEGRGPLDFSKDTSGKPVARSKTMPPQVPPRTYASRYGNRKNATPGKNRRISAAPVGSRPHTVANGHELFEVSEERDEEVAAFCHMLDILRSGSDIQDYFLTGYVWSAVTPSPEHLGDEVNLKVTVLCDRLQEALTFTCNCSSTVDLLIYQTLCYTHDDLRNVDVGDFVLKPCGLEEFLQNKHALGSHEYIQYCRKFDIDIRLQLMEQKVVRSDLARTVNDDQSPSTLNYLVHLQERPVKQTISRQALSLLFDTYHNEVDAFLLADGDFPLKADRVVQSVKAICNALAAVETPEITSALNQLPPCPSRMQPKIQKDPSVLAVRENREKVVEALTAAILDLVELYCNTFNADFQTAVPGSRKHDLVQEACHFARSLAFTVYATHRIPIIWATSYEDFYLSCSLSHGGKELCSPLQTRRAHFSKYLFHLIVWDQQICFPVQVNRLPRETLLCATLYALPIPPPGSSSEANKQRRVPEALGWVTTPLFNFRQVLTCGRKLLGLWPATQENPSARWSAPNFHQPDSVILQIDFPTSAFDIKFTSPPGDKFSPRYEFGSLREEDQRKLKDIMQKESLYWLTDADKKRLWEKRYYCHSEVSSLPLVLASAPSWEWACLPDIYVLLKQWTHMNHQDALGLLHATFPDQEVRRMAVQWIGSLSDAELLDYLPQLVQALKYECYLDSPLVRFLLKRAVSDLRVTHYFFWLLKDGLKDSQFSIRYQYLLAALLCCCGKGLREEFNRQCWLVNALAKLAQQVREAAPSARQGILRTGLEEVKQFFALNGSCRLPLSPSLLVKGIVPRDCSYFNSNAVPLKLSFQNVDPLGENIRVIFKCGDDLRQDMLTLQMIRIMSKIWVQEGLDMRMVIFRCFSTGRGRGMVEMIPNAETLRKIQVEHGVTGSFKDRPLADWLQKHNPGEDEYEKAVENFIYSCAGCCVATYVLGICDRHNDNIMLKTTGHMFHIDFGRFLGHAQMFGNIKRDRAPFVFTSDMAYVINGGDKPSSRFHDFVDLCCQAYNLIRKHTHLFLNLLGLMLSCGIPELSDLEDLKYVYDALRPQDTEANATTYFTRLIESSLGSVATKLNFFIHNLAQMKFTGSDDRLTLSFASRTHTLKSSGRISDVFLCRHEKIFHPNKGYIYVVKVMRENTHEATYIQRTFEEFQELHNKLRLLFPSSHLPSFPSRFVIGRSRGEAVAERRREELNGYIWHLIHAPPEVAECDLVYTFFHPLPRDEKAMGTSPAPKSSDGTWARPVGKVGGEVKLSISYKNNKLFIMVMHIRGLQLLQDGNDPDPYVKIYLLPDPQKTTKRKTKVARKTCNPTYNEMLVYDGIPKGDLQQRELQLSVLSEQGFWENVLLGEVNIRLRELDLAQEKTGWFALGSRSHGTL
Sequence of Tyrosine-protein kinase JAK1 (Homo sapiens) (P23458 whole entry, the tested form may be a part): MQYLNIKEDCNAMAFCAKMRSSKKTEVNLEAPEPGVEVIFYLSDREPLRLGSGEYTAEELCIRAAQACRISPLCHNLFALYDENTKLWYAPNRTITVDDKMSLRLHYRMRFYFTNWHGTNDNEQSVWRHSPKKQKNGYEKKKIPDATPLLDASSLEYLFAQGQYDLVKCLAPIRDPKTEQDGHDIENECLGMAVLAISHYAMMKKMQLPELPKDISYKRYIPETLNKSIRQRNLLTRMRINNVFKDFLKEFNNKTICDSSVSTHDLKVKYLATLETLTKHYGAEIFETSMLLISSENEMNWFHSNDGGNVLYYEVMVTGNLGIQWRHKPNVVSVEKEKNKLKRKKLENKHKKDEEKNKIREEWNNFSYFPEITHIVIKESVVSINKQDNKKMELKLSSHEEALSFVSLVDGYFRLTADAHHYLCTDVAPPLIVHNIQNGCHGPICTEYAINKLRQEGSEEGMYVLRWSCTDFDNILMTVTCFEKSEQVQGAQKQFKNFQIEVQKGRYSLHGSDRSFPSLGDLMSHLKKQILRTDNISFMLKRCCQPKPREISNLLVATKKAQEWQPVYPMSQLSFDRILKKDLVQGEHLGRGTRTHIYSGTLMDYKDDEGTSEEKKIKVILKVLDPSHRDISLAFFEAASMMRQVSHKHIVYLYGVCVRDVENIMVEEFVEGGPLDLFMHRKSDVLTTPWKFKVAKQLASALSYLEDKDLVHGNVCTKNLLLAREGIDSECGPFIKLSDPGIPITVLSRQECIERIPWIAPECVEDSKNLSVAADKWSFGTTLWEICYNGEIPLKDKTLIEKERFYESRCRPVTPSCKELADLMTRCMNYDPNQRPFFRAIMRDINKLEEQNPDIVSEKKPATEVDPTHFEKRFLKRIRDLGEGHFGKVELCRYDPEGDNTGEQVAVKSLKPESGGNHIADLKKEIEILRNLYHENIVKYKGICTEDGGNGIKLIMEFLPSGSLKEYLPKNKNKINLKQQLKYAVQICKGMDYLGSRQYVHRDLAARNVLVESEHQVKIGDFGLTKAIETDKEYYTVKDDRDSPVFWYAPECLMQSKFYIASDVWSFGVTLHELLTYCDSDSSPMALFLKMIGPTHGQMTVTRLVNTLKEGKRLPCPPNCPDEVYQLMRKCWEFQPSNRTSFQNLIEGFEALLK
Sequence of Serine/threonine-protein kinase Nek6 (Homo sapiens) (Q9HC98 whole entry): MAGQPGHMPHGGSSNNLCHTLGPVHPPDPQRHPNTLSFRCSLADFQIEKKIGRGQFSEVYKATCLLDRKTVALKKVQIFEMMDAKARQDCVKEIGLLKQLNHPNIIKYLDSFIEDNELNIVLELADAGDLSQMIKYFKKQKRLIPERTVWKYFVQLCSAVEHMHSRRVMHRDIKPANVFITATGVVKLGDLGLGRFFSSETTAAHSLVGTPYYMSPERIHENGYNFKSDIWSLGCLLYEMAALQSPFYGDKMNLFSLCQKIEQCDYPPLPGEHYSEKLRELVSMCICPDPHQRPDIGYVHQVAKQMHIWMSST
Sequence of Phosphatidylinositol 4-kinase beta (Homo sapiens) (Q9UBF8 2-816 limits assumed): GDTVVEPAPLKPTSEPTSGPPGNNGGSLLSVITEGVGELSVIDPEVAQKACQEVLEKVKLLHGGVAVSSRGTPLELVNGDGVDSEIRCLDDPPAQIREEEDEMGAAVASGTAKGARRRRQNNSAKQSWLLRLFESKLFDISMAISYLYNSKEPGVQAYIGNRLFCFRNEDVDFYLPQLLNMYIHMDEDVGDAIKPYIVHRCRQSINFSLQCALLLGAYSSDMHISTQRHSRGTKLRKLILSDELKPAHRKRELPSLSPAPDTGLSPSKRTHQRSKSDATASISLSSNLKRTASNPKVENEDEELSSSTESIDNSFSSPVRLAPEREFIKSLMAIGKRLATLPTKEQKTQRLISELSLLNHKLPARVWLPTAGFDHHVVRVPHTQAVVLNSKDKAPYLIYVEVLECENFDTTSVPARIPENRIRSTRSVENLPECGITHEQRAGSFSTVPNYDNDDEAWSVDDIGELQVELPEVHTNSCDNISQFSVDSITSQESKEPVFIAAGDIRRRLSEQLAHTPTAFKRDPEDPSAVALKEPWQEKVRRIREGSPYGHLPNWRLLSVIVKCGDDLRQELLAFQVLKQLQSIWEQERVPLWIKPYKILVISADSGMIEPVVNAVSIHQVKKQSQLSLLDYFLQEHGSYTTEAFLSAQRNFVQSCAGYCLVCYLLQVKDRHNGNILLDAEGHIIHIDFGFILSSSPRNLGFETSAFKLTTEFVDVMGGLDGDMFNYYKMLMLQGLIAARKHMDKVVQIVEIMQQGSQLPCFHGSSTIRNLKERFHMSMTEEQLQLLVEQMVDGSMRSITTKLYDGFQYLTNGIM
Sequence of Tyrosine-protein kinase CSK (Homo sapiens) (P41240 2-450 limits assumed): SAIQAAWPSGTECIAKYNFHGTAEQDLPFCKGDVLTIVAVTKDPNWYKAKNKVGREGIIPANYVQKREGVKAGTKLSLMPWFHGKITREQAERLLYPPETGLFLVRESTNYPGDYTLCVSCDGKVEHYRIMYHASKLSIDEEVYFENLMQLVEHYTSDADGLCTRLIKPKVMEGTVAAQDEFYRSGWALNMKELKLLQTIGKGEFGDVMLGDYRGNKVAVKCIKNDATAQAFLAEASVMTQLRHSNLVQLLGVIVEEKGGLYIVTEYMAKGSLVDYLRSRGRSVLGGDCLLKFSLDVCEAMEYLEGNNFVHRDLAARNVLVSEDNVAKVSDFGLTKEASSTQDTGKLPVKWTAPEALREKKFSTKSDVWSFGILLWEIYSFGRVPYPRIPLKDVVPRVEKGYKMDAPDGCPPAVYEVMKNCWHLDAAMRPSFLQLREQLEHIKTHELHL

inhibition [1] [%]	inhibition [2] [%]	inhibition [3] [%]	inhibition [4] [%]	inhibition [5] [%]	inhibition [6] [%]	inhibition [8] [%]	inhibition [9] [%]	inhibition [10] [%]	inhibition [11] [%]	inhibition [12] [%]	Structure (SMILES)	inhibition at 0.1 µM [7] [%]
< 35	< 35	< 35	< 35	< 35	< 35	< 35	< 35	< 35	< 35	< 35	C[C@H]1COc2c(NCCCc3ccccn3)c(F)c(N)c3c(=O)c(C#N)cn1c23	< 35
< 35	< 35	< 35	< 35	< 35	< 35	< 35	< 35	< 35	< 35	< 35	C[C@H]1COc2c(NCCCn3cccn3)c(F)c(N)c3c(=O)c(C(=O)O)cn1c23	< 35
< 35	< 35	< 35	< 35	< 35	< 35	< 35	< 35	< 35	< 35	< 35	C[C@H]1COc2c(NCCCn3cccn3)c(F)c(N)c3c(=O)c(C#N)cn1c23	< 35
< 35	< 35	< 35	< 35	< 35	< 35	< 35	< 35	< 35	< 35	< 35	C[C@H]1COc2c(NCCCc3ccccn3)c(F)c(N)c3c(=O)c(C(=O)O)cn1c23	< 35

Reference: ChEMBL document CHEMBL1938230, “6-Position optimization of tricyclic 4-quinolone-based inhibitors of glycogen synthase kinase-3β: discovery of nitrile derivatives with picomolar potency” (Bioorg Med Chem Lett, 2012)
